In patent US8648112B2, “Therapeutic uses of urolithins” (The Regents of the University of California, priority 2006, dated 2014):

Key:
[1] = test system: human pancreatic cancer cell line BXPC-3; experiment: Antiproliferative activity against pancreatic cancer cells (CellTiter-Glo), BXPC-3; assay type: cell-based; details: 100 μg/mL, 48 hrs
Procedure: (§1) EA and EA-metabolites (gallic and gallagic acids, urolithin B and methylated-urolithin A) were evaluated for antiproliferative activity against the human pancreatic cancer cell lines ASPC-1 and BXPC-3. The cells were grown to a concentration of 10,000 cells per well; and were then resuspended in medium containing the vehicle control or the indicated compound: Ellagic acid, urolithin A, methyl urolithin A, or urolithin B, at a concentration of 100 μg/mL. The cells were incubated for 48 hrs, and the viability assayed byCellTiter-Glo® Luminescent Cell Viability Assay (Technical Bulletin #288, Promega Corp., Madison, Wis.).

LNCaP cells = experiment: Assessment of apoptosis (Cell Death Detection ELISA), LNCaP; assay type: cell-based, human; details: 48 h, p=0.01
Procedure: (§2) Assessment of apoptosis. Apoptosis was assessed utilizing the Cell Death Detection ELISAPLUS Assay (Boehringer Mannheim, Indianapolis, Ind.). This assay is a photometric enzyme-linked immunoassay that quantitatively measures the internucleosomal degradation of DNA, which occurs during apoptosis. Specifically, the assay detects histone associated mono- and oligonucleosomes, which are indicators of apoptosis. Cells (22RV1, PC-3, LNCaP, LNCaP-AR), were plated in 60 mm dishes at a density of 100,000 cells/dish and allowed to attach for 24 hours. Cells were treated with vehicle control (100% DMSO; 0.3% final concentration), or urolithin B (0-50 μg/mL or 0-236 μM) for 48 hours. Following treatments, non-adherent cells were collected and pelleted at 200×g for ten minutes. The supernatant was discarded; the cell pellet was washed with cold CMF-PBS and re-centrifuged. […] Both live and dead cells were then counted via trypan blue exclusion (Pierce, Rockford, Ill.) and equal numbers of cells were added to the microtiter plate for all treatment groups and apoptosis assay was performed according to the manufacturer's instructions. Data are expressed as absorbance at 405 nm of each sample over vehicle controls as follows=treatment value-blank/vehicle value-blank.

[2] = test system: LNCaP prostate cancer cell line; experiment: Antiproliferative cell assay (CellTiter-Glo), LNCaP; assay type: cell-based, human; details: Homo sapiens, 48 h exposure, read-out: IC50 against prostate cancer cell line LNCaP
Procedure: (§3) Cell Culture Materials. The 22Rv1, DU145, LNCaP and PC3 prostate cancer cell lines were obtained from American Type Culture Collection (ATCC, Rockville, Md.). The LNCaP-AR and Hi-Myc cell lines were a kind donation by Dr. C. Sawyers (David Geffen School of Medicine, UCLA, Los Angeles, Calif.). DU145, 22Rv1, LNCaP, LNCaP-AR, and PC3 cells were grown in RPMI 1640; Hi-Myc cells were grown in Isecove's Modified Dulbecco's Medium. All media contained 10% fetal bovine serum (FBS) in the presence of 100 U/mL penicillin and 0.1 g/L streptomycin. RWPE-1 prostate cells were grown in Defined Keratinocyte Serum Free Medium (DKSFM) containing epidermal growth factor (EGF), insulin and fibroblast growth factor (FGF). Cells were incubated at 37° C. with 95% air and 5% CO2. All cells were maintained below passage 20 and used in experiments during the linear phase of growth.
(§4) Proliferation was measured utilizing the CellTiter-Glo® Luminescent Cell Viability Assay (Technical Bulletin #288, Promega Corp., Madison, Wis.). When added to cells, the assay reagent produces luminescence in the presence of ATP from viable cells. Cells were plated in 96-well plates at a density of 10,000 cells/well and incubated for 24 hours. Test samples were solubilized in DMSO by sonication, filter sterilized and diluted with media to the desired treatment concentration. Cells were treated with 100 μLcontrol media, vehicle control (DMSO<0.2% of total) or test samples and incubated for 48 h drug exposure duration at 6.25, 12.5, 25, 50 and 100 μg/mL concentrations. At the end of 48 h, plates were equilibrated at room temperature for 30 min; 100 μL of the assay reagent was added to each well and cell-lysis was induced on an orbital shaker for 2 min. Plates were incubated at room temperature for 10 min to stabilize the luminescence signal and results were read on an Orion Microplate Luminometer (Bertholds Detection Systems, Pforzheim, Germany). All plates had control wells containing medium without cells to obtain a value for background luminescence. Data are expressed as percentage of untreated cells (i.e. treatment value-blank/vehicle value-blank), mean±SE for three replications.

22Rv1 cells = experiment: Assessment of apoptosis (Cell Death Detection ELISA), 22Rv1; assay type: cell-based, human; details: 48 h, p=0.05
Procedure: as §2

PC3 cells = experiment: Assessment of apoptosis (Cell Death Detection ELISA), PC3; assay type: cell-based, human; details: 48 h, p=0.05
Procedure: as §2

[3] = test system: Hi-Myc prostate cancer cell line; experiment: Antiproliferative cell assay (CellTiter-Glo), Hi-Myc; assay type: cell-based; details: Hi-Myc (mouse), 48 h exposure, read-out: IC50 against prostate cancer cell line HiMyc
Procedure: as §3, §4

[4] = test system: LNCaP-AR prostate cancer cell line; experiment: Antiproliferative cell assay (CellTiter-Glo), LNCaP-AR; assay type: cell-based, human; details: Homo sapiens, 48 h exposure, read-out: IC50 against prostate cancer cell line LNCap-AR
Procedure: as §3, §4

[5] = test system: PC3 prostate cancer cell line; experiment: Antiproliferative cell assay (CellTiter-Glo), PC3; assay type: cell-based, human; details: Homo sapiens, 48 h exposure, read-out: IC50 against prostate cancer cell line PC3
Procedure: as §3, §4

LNCaP-AR cells = experiment: Assessment of apoptosis (Cell Death Detection ELISA), LNCaP-AR; assay type: cell-based, human; details: 48 h, p=0.01
Procedure: as §2

[6] = test system: human pancreatic cancer cell line ASPC-1; experiment: Antiproliferative activity against pancreatic cancer cells (CellTiter-Glo), ASPC-1; assay type: cell-based; details: 100 μg/mL, 48 hrs
Procedure: as §1

[7] = test system: DU145 prostate cancer cell line; experiment: Antiproliferative cell assay (CellTiter-Glo), DU145; assay type: cell-based, human; details: Homo sapiens, DU-145, 48 h exposure, read-out: IC50 against prostate cancer cell line DU145
Procedure: as §3, §4

[8] = test system: 22Rv1 prostate cancer cell line; experiment: Antiproliferative cell assay (CellTiter-Glo), 22Rv1; assay type: cell-based, human; details: Homo sapiens, 22Rv1, 48 h, 48 h exposure, read-out: IC50 against prostate cancer cell line 22 Rv1
Procedure: as §3, §4

[9] = test system: human colon cancer cell line HCT-116; experiment: Antiproliferative activity against colon cancer cells (CellTiter-Glo); assay type: cell-based; details: 100 μg/mL, 48 hrs
Procedure: as §1, with “colon” for “pancreatic”, “line HCT-116.” for “lines ASPC-1 and BXPC-3.”, “well in a 96 well format;” for “well;”, “containing” for “containing the”, “by the CellTiter-Glo®” for “byCellTiter-Glo®”

**Q.** With `O=c1oc2cc(O)ccc2c2ccccc12` [Urolithin B, 3-hydroxy-6H-dibenzo[b,d]pyran-6-one] as the compound, how does the “anti-proliferative activity, rank order” value [1] read?
**A.** The value was “urolithin A is the most active, then ellagic acid, urolithin B and methyl urolithin A”.

**Q.** What about the “concentration showing statistically significant pro-apoptotic effect” value (LNCaP cells) of the same compound?
**A.** The value was 118 µM.

**Q.** And the IC50 [2]?
**A.** Its IC50 is 90.5 µM.

**Q.** What about the “concentration showing statistically significant pro-apoptotic effect” value (22Rv1 cells) of the same compound?
**A.** Its value is 59 µM.

**Q.** What about the “concentration showing statistically significant pro-apoptotic effect” value (PC3 cells) of the same compound?
**A.** The value was 29.5 µM.

**Q.** And the IC50 [3]?
**A.** Its IC50 is 59.9 µM.

**Q.** What about the IC50 [4] of the same compound?
**A.** Its IC50 is 28.5 µM.

**Q.** What about the IC50 [5] of the same compound?
**A.** Its IC50 is 127 µM.

**Q.** And the “concentration showing statistically significant pro-apoptotic effect” value (LNCaP-AR cells)?
**A.** Its value is 59 µM.

**Q.** What about the “anti-proliferative activity, rank order” value [6] of the same compound?
**A.** Its value is “urolithin A is the most active, then ellagic acid, urolithin B and methyl urolithin A”.

**Q.** What about the IC50 [7] of the same compound?
**A.** The IC50 was 59.4 µM.

**Q.** What about the IC50 [8] of the same compound?
**A.** The IC50 was 118 µM.

**Q.** What about the “anti-proliferative activity, rank order” value [9] of the same compound?
**A.** Its value is “urolithin A is the most active, then ellagic acid, urolithin B and methyl urolithin A”.
